US9394311B2, “Triazolo compounds as PDE10 inhibitors” (Hoffmann-La Roche Inc., priority 2012, dated 2016)

Biological target: human PDE10A (Homo sapiens (Human), UniProt Q9Y233)
Test: human PDE10A full length Scintillation Proximity Assay (SPA)
Type: biochemical
Details: PDE10A full length enzyme, 50 nM cGMP / [3H]-cGMP substrate, 20 minutes at room temperature
Experimental: The following test was carried out in order to determine the activity of the compounds of the present invention. PDE10 activity of the compounds of the present invention was determined using a Scintillation Proximity Assay (SPA)-based method similar to the one previously described (Fawcett, L. et al., Proc Natl Acad Sci USA (2000) 97(7):3702-3707).
The human PDE10A full length assay was performed in 96-well micro titer plates. The reaction mixture of 50 μl contained 20 mM HEPES pH=7.5/10 mM MgCl2/0.05 mg/ml BSA (Sigma cat. # A-7906), 50 nM cGMP (Sigma, cat. # G6129) and 50 nM [3H]-cGMP (GE Healthcare, cat. # TRK392 S.A. 13.2 Ci/mmol), 3.75 ng/well PDE10A enzyme (Enzo Life Science, Lausen, Switzerland cat # SE-534) with or without a specific test compound. A range of concentrations of the potential inhibitor was used to generate data for calculating the concentration of inhibitor resulting in 50% of the effect (e.g. IC50, the concentration of the competitor inhibiting PDE10A activity by 50%). Non-specific activity was tested without the enzyme. The reaction was initiated by the addition of the substrate solution (cGMP and [3H]-cGMP) and allowed to progress for 20 minutes at room temperature. The reaction was terminated by adding 25 μl of YSi-SPA scintillation beads (GE Healthcare, cat. # RPNQ0150) in 18 mM zinc sulphate solution (stop reagent). After 1 h under shaking, the plate was centrifuged one minute at 170 g to allow beads to settle. Afterwards, radioactive counts were measured on a Perkin Elmer Top-Count Scintillation plate reader.

human PDE10A, sequence (Q9Y233 other isoform, or with tags, fused parts or gaps): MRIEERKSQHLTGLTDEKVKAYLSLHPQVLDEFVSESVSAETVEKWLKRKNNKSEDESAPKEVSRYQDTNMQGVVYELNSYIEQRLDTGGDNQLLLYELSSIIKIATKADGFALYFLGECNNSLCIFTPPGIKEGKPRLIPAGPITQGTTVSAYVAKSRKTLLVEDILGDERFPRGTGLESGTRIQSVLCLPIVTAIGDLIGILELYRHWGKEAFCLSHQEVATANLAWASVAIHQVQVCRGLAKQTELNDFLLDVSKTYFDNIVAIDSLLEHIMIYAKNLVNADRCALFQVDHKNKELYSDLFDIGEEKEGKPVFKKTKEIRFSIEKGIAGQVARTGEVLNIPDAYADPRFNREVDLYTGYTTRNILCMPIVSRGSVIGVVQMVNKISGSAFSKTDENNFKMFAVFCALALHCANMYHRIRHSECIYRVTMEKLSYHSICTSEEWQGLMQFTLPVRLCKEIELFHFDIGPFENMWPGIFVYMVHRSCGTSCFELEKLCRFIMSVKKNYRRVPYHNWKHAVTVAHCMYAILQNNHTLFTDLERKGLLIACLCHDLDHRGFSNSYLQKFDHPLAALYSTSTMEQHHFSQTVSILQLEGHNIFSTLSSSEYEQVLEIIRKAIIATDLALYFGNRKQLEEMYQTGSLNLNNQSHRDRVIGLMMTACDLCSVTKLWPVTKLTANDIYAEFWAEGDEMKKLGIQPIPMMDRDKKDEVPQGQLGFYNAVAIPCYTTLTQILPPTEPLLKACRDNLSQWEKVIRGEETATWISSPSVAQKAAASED

| SMILES | IC50 [nM] |
| --- | --- |
| COC1CCN(c2nc(CCc3nc4c(C)ncc(C)n4n3)n(C)n2)C1 (centres unmarked) [Example 43, 2-{2-[5-(3-Methoxy-pyrrolidin-1-yl)-2-methyl-2H-[1,2,4]triazol-3-yl]-ethyl}-5,8-dimethyl-[1,2,4]triazolo[1,5-a]pyrazine] | 84.3 |
| Cc1c(Cl)cc(OC(F)F)c2nc(CCc3nc(N4CCCC4)n(C)n3)nn12 [Example 106, 6-Chloro-8-difluoromethoxy-5-methyl-2-[2-(1-methyl-5-pyrrolidin-1-yl-1H-[1,2,4]triazol-3-yl)-ethyl]-[1,2,4]triazolo[1,5-c]pyridine] | 0.55 |
| Cc1ncc(C)n2nc(CCc3nc(N4CCC(O)C4)nn3C)nc12 (centres unmarked) [Example 104, 1-{5-[2-(5,8-Dimethyl-[1,2,4]triazolo[1,5-a]pyrazin-2-yl)-ethyl]-1-methyl-1H-[1,2,4]triazol-3-yl}-pyrrolidin-3-ol] | 131 |
| Cc1ncc(C)n2nc(CCc3nc(N4CCCC4=O)nn3C)nc12 [Example 87, 1-{5-[2-(5,8-Dimethyl-[1,2,4]triazolo[1,5-a]pyrazin-2-yl)-ethyl]-1-methyl-1H-[1,2,4]triazol-3-yl}-pyrrolidin-2-one] | 288 |
| Cc1ncc(C)n2nc(CCc3nc(N4CC(F)C4)nn3C)nc12 [Example 39, 2-{2-[5-(3-Fluoro-azetidin-1-yl)-2-methyl-2H-[1,2,4]triazol-3-yl]-ethyl}-5,8-dimethyl-[1,2,4]triazolo[1,5-a]pyrazine] | 55.6 |
| Cn1nc(N2CCCC2)nc1CCc1nc2cc(C(F)(F)F)ccn2n1 [Example 66, 2-(2-(1-Methyl-3-(pyrrolidin-1-yl)-1H-1,2,4-triazol-5-yl)ethyl)-7-(trifluoromethyl)-[1,2,4]triazolo[1,5-a]pyridine] | 331 |
| Cc1c(Cl)cc(Br)c2nc(CCc3nc(N4CCCC4)nn3C)nn12 [Example 71, 8-Bromo-6-chloro-5-methyl-2-[2-(2-methyl-5-pyrrolidin-1-yl-2H-[1,2,4]triazol-3-yl)-ethyl]-[1,2,4]triazolo[1,5-a]pyridine] | 1.01 |
| Cc1c(Cl)cc(C(F)(F)F)c2nc(CCc3nc(N4CCCC4)nn3C)nn12 [Example 69, 6-Chloro-5-methyl-2-[2-(2-methyl-5-pyrrolidin-1-yl-2H-[1,2,4]triazol-3-yl)-ethyl]-8-trifluoromethyl-[1,2,4]triazolo[1,5-c]pyridine] | 0.5 |
| Cc1cccc2nc(CCc3nc(N4CCCC4)nn3C)nn12 [Example 29, 5-Methyl-2-(2-(1-methyl-3-(pyrrolidin-1-yl)-1H-1,2,4-triazol-5-yl)ethyl)-[1,2,4]triazolo[1,5-a]pyridine] | 55.9 |
| Cc1nc(C)c2nc(CCc3nc(N4CCCC4)nn3C)nn2c1C [Example 41, 5,6,8-Trimethyl-2-(2-(1-methyl-3-(pyrrolidin-1-yl)-1H-1,2,4-triazol-5-yl)ethyl)-[1,2,4]triazolo[1,5-a]pyrazine] | 37.3 |
| Cc1cncc2nc(CCc3nc(N4CCCC4)nn3C)nn12 [Example 57, 5-Methyl-2-(2-(1-methyl-3-(pyrrolidin-1-yl)-1H-1,2,4-triazol-5-yl)ethyl)-[1,2,4]triazolo[1,5-a]pyrazine] | 251 |
| Cc1cnc(C)n2nc(CCc3nc(N4CCC[C@@H]4C)nn3C)nc12 [Example 112, 5,8-Dimethyl-2-{2-[2-methyl-5-((S)-2-methyl-pyrrolidin-1-yl)-2H-[1,2,4]triazol-3-yl]-ethyl}-[1,2,4]triazolo[1,5-c]pyrimidine] | 9 |
| Cc1ncc(C)n2nc(CCc3nc(N4CCCC4)n[nH]3)nc12 [Example 8, 5,8-Dimethyl-2-[2-(5-pyrrolidin-1-yl-2H-[1,2,4]triazol-3-yl)-ethyl]-[1,2,4]triazolo[1,5-a]pyrazine] | 1.87 |
| Cc1c(Br)cc(Cl)c2nc(CCc3nc(N4CCCC4)nn3C)nn12 [Example 72, 6-Bromo-8-chloro-5-methyl-2-(2-(1-methyl-3-(pyrrolidin-1-yl)-1H-1,2,4-triazol-5-yl)ethyl)-[1,2,4]triazolo[1,5-a]pyridine] | 1.22 |
| Cc1ncc(C)n2nc(CCc3nc(N4CCC[C@@H]4C(F)(F)F)nn3C)nc12 [Example 114, 5,8-Dimethyl-2-{2-[2-methyl-5-((R)-2-trifluoromethyl-pyrrolidin-1-yl)-2H-[1,2,4]triazol-3-yl]-ethyl}-[1,2,4]triazolo[1,5-a]pyrazine] | 34.2 |
| CCn1nc(N2CCCC2)nc1CCc1nc2c(C)ncc(C)n2n1 [Example 2, 2-[2-(2-Ethyl-5-pyrrolidin-1-yl-2H-[1,2,4]triazol-3-yl)-ethyl]-5,8-dimethyl-[1,2,4]triazolo[1,5-a]pyrazine] | 5.57 |

| SMILES | IC50 [nM] |
| --- | --- |
| CCn1nc(N2CCCC2)nc1CCc1nc2nc(C)cc(C)n2n1 [Example 4, 2-[2-(2-Ethyl-5-pyrrolidin-1-yl-2H-[1,2,4]triazol-3-yl)-ethyl]-5,7-dimethyl-[1,2,4]triazolo[1,5-a]pyrimidine] | 10.9 |
| Cc1ncc(C)n2nc(CCc3nc(N4CCCC4)nn3-c3ccccc3)nc12 [Example 109, 5,8-Dimethyl-2-[2-(2-phenyl-5-pyrrolidin-1-yl-2H-[1,2,4]triazol-3-yl)-ethyl]-[1,2,4]triazolo[1,5-a]pyrazine] | 0.29 |
| COC[C@H]1CCCN1c1nc(CCc2nc3c(C)ncc(C)n3n2)n(C)n1 [Example 124, 2-{2-[5-((R)-2-Methoxymethyl-pyrrolidin-1-yl)-2-methyl-2H-[1,2,4]triazol-3-yl]-ethyl}-5,8-dimethyl-[1,2,4]triazolo[1,5-a]pyrazine] | 14.1 |
| Cc1cnc(C)n2nc(CCc3nc(N4CCCC4)nn3C)nc12 [Example 58, 5,8-Dimethyl-2-[2-(2-methyl-5-pyrrolidin-1-yl-2H-[1,2,4]triazol-3-yl)-ethyl]-[1,2,4]triazolo[1,5-c]pyrimidine] | 8.21 |
| CCn1nc(CCc2nc3c(C)ncc(C)n3n2)nc1N1CCCC1 [Example 48, 2-(2-(1-Ethyl-5-(pyrrolidin-1-yl)-1H-1,2,4-triazol-3-yl)ethyl)-5,8-dimethyl-[1,2,4]triazolo[1,5-a]pyrazine] | 28.5 |
| Cn1nc(N2CCCC2)nc1CCc1nc2cccc(C(F)(F)F)n2n1 [Example 64, 2-(2-(1-Methyl-3-(pyrrolidin-1-yl)-1H-1,2,4-triazol-5-yl)ethyl)-5-(trifluoromethyl)-[1,2,4]triazolo[1,5-a]pyridine] | 56.6 |
| Cc1cc(C)n2nc(CCc3nc(N4CCC4)nn3C)nc2n1 [Example 21, 2-[2-(5-Azetidin-1-yl-2-methyl-2H-[1,2,4]triazol-3-yl)-ethyl]-5,7-dimethyl-[1,2,4]triazolo[1,5-a]pyrimidine] | 91.5 |
| Cc1ncc(C)n2nc(CCc3nc(N4CC[C@@H](F)C4)nn3C)nc12 [Example 96, 2-{2-[5-((R)-3-Fluoro-pyrrolidin-1-yl)-2-methyl-2H-[1,2,4]triazol-3-yl]-ethyl}-5,8-dimethyl-[1,2,4]triazolo[1,5-a]pyrazine] | 10.7 |
| Cc1ncc(C)n2nc(CCc3nc(N4CCCC4C)nn3C)nc12 (centres unmarked) [Example 51, 5,8-Dimethyl-2-{2-[2-methyl-5-(2-methyl-pyrrolidin-1-yl)-2H-[1,2,4]triazol-3-yl]-ethyl}-[1,2,4]triazolo[1,5-a]pyrazine] | 28.4 |
| Cn1nc(N2CCCC2)nc1CCc1nc2cc(C(F)(F)F)c(F)c(N)n2n1 [Example 63, 6-Fluoro-2-(2-(1-methyl-3-(pyrrolidin-1-yl)-1H-1,2,4-triazol-5-yl)ethyl)-7-(trifluoromethyl)-[1,2,4]triazolo[1,5-a]pyridin-5-amine] | 32.4 |
| Cc1nc2cc(Cl)ccc2nc1C#Cc1nc(N2CCCC2)nn1C [Example 135, 6-Chloro-3-methyl-2-(2-methyl-5-pyrrolidin-1-yl-2H-[1,2,4]triazol-3-ylethynyl)-quinoxaline] | 10.7 |
| Cc1cnc(C)n2nc(/C=C/c3nc(N4CCC4)nn3C)nc12 [Example 81, 2-[(E)-2-(5-Azetidin-1-yl-2-methyl-2H-[1,2,4]triazol-3-yl)-vinyl]-5,8-dimethyl-[1,2,4]triazolo[1,5-c]pyrimidine] | 74.4 |
| Cc1c(Cl)cc(C(F)F)c2nc(CCc3nc(N4CCCC4)nn3C)nn12 [Example 130, 6-Chloro-8-(difluoromethyl)-5-methyl-2-(2-(1-methyl-3-(pyrrolidin-1-yl)-1H-1,2,4-triazol-5-yl)ethyl)-[1,2,4]triazolo[1,5-a]pyridine] | 0.89 |
| CCN(CC)c1nc(CCc2nc3c(C)ncc(C)n3n2)n(C)n1 [Example 59, {5-[2-(5,8-Dimethyl-[1,2,4]triazolo[1,5-a]pyrazin-2-yl)-ethyl]-1-methyl-1H-[1,2,4]triazol-3-yl}-diethyl-amine] | 50.6 |
| Cc1ncc(C)n2nc(/C=C/c3nc(N4CCCC4)nn3C)nc12 [Example 13, 5,8-Dimethyl-2-[2-(2-methyl-5-pyrrolidin-1-yl-2H-[1,2,4]triazol-3-yl)-vinyl]-[1,2,4]triazolo[1,5-a]pyrazine] | 27.7 |
| Cc1ncc(C)n2nc(/C=C/c3nc(N4CCCCCC4)nn3C)nc12 [Example 102, 2-[(E)-2-(5-Azepan-1-yl-2-methyl-2H-[1,2,4]triazol-3-yl)-vinyl]-5,8-dimethyl-[1,2,4]triazolo[1,5-a]pyrazine] | 179 |
